The values below come from patent publication US10494338B2, “Prostaglandin derivative” (AGC INC., priority 2016, dated 2019).

Some results are limits rather than exact numbers.

In one assay the test system is rat platelet aggregation. Put plainly: Inhibitory action on rat platelet aggregation in vitro (ADP-induced, platelet-rich plasma). Type of assay: cell-based. The note with it: SD rat PRP, ADP 2 μmol/L; relative activity from IC50, activity of IC50 value of PGE1 = 100. On the procedure:
Experimental Example 2: Evaluation of Inhibitory Action on Rat Platelet Aggregation In Vitro (1) Preparation of Rat Platelet-Rich Plasma In the same manner as in the above-mentioned Experimental Example 1(1), blood samples were collected from the abdominal artery of 8- to 9-week-old male SD rats. PRP was diluted with PPP and the number of platelet was adjusted to 63.2×10^4/μL. (2) Measurement of Platelet Aggregation Ability In the same manner as in the above-mentioned Experimental Example 1(2) except that the final concentration of ADP was 2 μmol/L, the compound of the present invention, prostaglandin E1 (PGE1:positive control substance) or vehicle control was added as a test substance, and the maximum response of aggregation was measured. (3) Evaluation of Platelet Aggregation Inhibitory Action In the same manner as in the above-mentioned Experimental Example 1(3), IC50 values were determined from the aggregation inhibition ratio of the test substance, and the relative activity (%) of each test substance was calculated by defining the activity of IC50 value of PGE1 as 100.

In assay [1] the test system is human platelet aggregation. Nature of the assay: Human platelet aggregation inhibitory action in vitro (ADP-induced, platelet-rich plasma). Type of assay: cell-based. The following applies: human PRP, ADP 3 μmol/L; relative activity from IC50, activity of IC50 value of limaprost = 100. On the procedure: Experimental Example 1: Evaluation of Human Platelet Aggregation Inhibitory Action In Vitro
(1) Preparation of Human Platelet-Rich Plasma
Using 3.8 w/v % sodium citrate as an anticoagulant, blood samples were collected from human brachial vein at a ratio of sodium citrate solution:blood (volume ratio)=1:9, and an upper layer of platelet-rich plasma (PRP) was collected by centrifugation (120×g, 10 min). Platelet poor plasma (PPP) was prepared from PRP-free blood by centrifugation (1700×g, 10 min). The number of platelets in PRP was measured and adjusted to 25×10^4/μL by diluting with PPP.
(2) Measurement of Platelet Aggregation Ability
The platelet aggregation ability was measured by a platelet aggregometer (PRP313 M, IMI Co., Ltd.) according to the method of Born (Nature, 1962, vol. 194, pp. 927-929). PRP (190 μL) was placed in a glass cuvette and mounted on the platelet aggregometer. Then, 5 μL of the compound of the present invention, limaprost (positive control substance) or vehicle control (0.25 vol % dimethyl sulfoxide [DMSO]) was added as a test substance, and the mixture was incubated at 37° C. for 10 min. ADP (LMS Co., Ltd.) (5 μL) as a platelet aggregation agent was added at 3 μmol/L in a final concentration to cause aggregation, and the maximum response of the aggregation was measured.
(3) Evaluation of Inhibitory Action on Platelet Aggregation
The aggregation inhibition ratio of a test substance was determined by defining the maximum aggregation ratio of control as 100%, and IC50 value was determined by using “Dx calculation (linear fitting): non-logit transformation” of SAS System Version 9.1.3 (Stat Preclinica Client Ver. 1.1 SAS Institute Japan, Ltd.). Furthermore, the relative activity (%) of each test substance was calculated by defining the activity of IC50 value of limaprost as 100.

Assay [2] concerns rat cauda equine blood flow. Nature of the assay: Increasing effect on rat cauda equine blood flow (intravenous infusion, laser Doppler). Type of assay: in vivo. The note with it: Wistar rat, tail vein infusion 10 min; relative activity from ED20 (dose increasing cauda equine blood flow by 20%), limaprost = 100. On the procedure:
Experimental Example 4: Evaluation of Increasing Effect on rat Cauda Equine Blood Flow
(1) Administration of Test Substance
The compound of the present invention or limaprost (positive control substance) as a test substance was injected at 0.263, 0.789 and 2.63 nmol/kg in principle to Slc:Wistar male rats (body weight: about 200-250 g) from the tail vein at a flow rate of 0.2 mL/min for 10 min with an infusion pump (model 11, Harvard Apparatus). A vehicle (1 vol % DMSO-physiological saline) was similarly injected to the control group (5-6 […] in each group).
(2) Measurement of Cauda Equine Blood Flow
The rats were fixed in a prone position under halothane anesthesia and kept warm by a heater (Nippon Medical & Chemical Instruments Co., Ltd.). The lower back of the rats was shaved, dissected to expose the spine, the vertebral arch of the fifth lumbar vertebra was excised and cauda equina was exposed. The cauda equine blood flow was measured by a laser Doppler blood flow meter (TBF-LN1, Unique Medical Co., Ltd.) via a non-contact type probe (LP-NC special type, Unique Medical Co., Ltd.) fixed perpendicularly to a position of the exposed cauda equina upper by about 1 mm from before administration of each test substance until 60 min after the administration. The open wound was filled with liquid paraffin to prevent drying of the exposed cauda equina.
The obtained data was taken into a personal computer via PowerLab8/30 (registered trade mark, ML870, ADInstruments) every 1/400 second, and analyzed using LabChart (registered trade mark, ADInstruments). The analysis time points were before administration (administration 0 min), and 3, 5, 8, 10, 13, 15, 18, 20, 30, 40, 50 and 60 min after administration, or before administration (administration 0 min), and 3, 5, 10, 15, 20, 30, 40, 50 and 60 min after administration. The mean value for 10 seconds at each time point was taken as the measurement value, and the change rate (%) relative to the value before administration was obtained by the following equation. The rate of change (%)=(measurement value at each time point after administration−measurement value before administration)/measurement value before administration×100
Furthermore, difference in the rate of change (%) relative to the control group at each time point [Δ change rate (%)] was calculated by the following equation, and the maximum value of the Δ change rate was taken as the maximum change rate. Δchange rate (%)=change rate of each individual at each time point−mean of change rate of control group
From the maximum change rate at each dose of the test substance, the dose at which the cauda equine blood flow increases by 20% (ED20 value) was determined by linear regression equation, and the relative activity (%) of each test substance was calculated based on the activity of ED20 value of limaprost as 100.

In assay [3] the test system is guinea pig platelet aggregation. Put plainly: Persistent inhibitory action on guinea pig platelet aggregation ex vivo after single oral dose. The note with it: for AUC: 1-inhibition 0 hr / AUC: 6-inhibition 0 hr: AUC of maximum aggregation inhibition ratio (%) vs time (hr), oral IC50 dose; for AUC: 1-inhibition 0 hr: from 1 hr after administration to inhibition 0 hr; for AUC: 6-inhibition 0 hr: from 6 hr after administration to inhibition 0 hr; for Inhibition 0 hr: assumed time at which maximum aggregation inhibition ratio became 0%, single oral dose at IC50 dose; for Inhibition 0 hr / single oral dose showing the IC50 value: guinea pig; for single oral dose showing the IC50 value: blood collected 4 hr later, ADP 0.5 μmol/L; for AUC: 1-inhibition 0 hr (% relative to limaprost) / AUC: 6-inhibition 0 hr (% relative to limaprost): value in brackets, limaprost = 100. Type of assay: in vivo. On the procedure: Experimental Example 3: Evaluation of Persistent Inhibitory Action on Guinea Pig Platelet Aggregation Ex Vivo
(1) Measurement of IC50 Value
As a test substance, a single oral dose of the compound of the present invention (3 doses of 79, 132 and 263 nmol/kg), limaprost (positive control substance: 3 doses of 79, 263 and 789 nmol/kg) or vehicle control (water for injection containing 0.26 vol % DMSO) was administered at 10 mL/kg to 4- to 10-week-old male Hartley guinea pigs. Blood samples were collected from the abdominal artery 4 hr later, platelet aggregation ability was measured, and the IC50 value was calculated from the aggregation inhibitory activity (aggregation was induced by 0.5 μmol/L ADP) in the same manner as in the above-mentioned Experimental Example 1(3).
(2) Administration of Test Substance and Preparation of Platelet-Rich Plasma
Blood samples were collected from the abdominal artery of the guinea pig at 1, 2, 4, 6, 10, 16 and 24 hr later. PRP was diluted with PPP and the number of platelet was adjusted to about 60×10^4/μL in the same manner as in the above-mentioned Experimental Example 1(1) (n=3−4).
(3) Measurement of Platelet Aggregation
In the same manner as in the above-mentioned Experimental Example 1(2), the platelet aggregation ability was measured according to the method of Born. PRP (190 μL) was placed in a glass cuvette, mounted on the platelet aggregometer and incubated at 37° C. for 10 min. ADP (10 μL) as platelet aggregation agent was added at 0.5 μmol/L in a final concentration to cause aggregation, and the maximum reaction of the aggregation was measured.
(4) Evaluation of Persistent Inhibitory Action on Platelet Aggregation
The maximum aggregation inhibition ratio of the test substance based on the maximum aggregation inhibition ratio of the control group as 0% was determined from the maximum coagulation ratio of the control group and the maximum coagulation ratio of the test substance when IC50 values were calculated. […] In addition, the assumed time at which the maximum aggregation inhibition ratio became 0% on the graph was determined as the time at which inhibition of aggregation disappeared (inhibition 0 hr).

Take `CCC#CC[C@H](C)C(O)/C=C/[C@H]1[C@H](O)CC(=O)[C@@H]1CCSC/C=C/C(=O)OC` (mixture of isomers) [compound (1)-2, methyl (2E)-4-((2-((1R,2R,3R)-3-hydroxy-2-((1E,3RS,4S)-3-hydroxy-4-methylnon-1-en-6-yn-1-yl)-5-oxocyclopentyl)ethyl)thio)but-2-enoate]: the “Relative activity (%)” value in the assay with rat platelet aggregation is 62%.

On to `CCC#CC[C@H](C)[C@H](O)/C=C/[C@H]1[C@H](O)CC(=O)[C@@H]1CCCCCCC(=O)OCc1oc(=O)oc1C` [compound (1)-4, (5-methyl-2-oxo-1,3-dioxol-4-yl)methyl 7-((1R,2R,3R)-3-hydroxy-2-((1E,3S,4S)-3-hydroxy-4-methylnon-1-en-6-yn-1-yl)-5-oxocyclopentyl)heptanoate], for which the “Relative activity (%)” value in assay [1] is 643%; in assay [2] it was 147%.

For `C[C@@H](CC#CC1CC1)[C@H](O)/C=C/[C@H]1[C@H](O)CC(=O)[C@@H]1CCCC/C=C/C(=O)O` [compound (1)-10, (2E)-7-((1R,2R,3R)-2-((1E,3S,4S)-7-cyclopropyl-3-hydroxy-4-methylhept-1-en-6-yn-1-yl)-3-hydroxy-5-oxocyclopentyl)hept-2-enoic acid], in assay [1], the “Relative activity (%)” value is recorded as 1481%. In assay [3], the AUC: 1-inhibition 0 hr was found to be 719 %·h, the AUC: 6-inhibition 0 hr was 508 %·h, the “Inhibition 0 hr” value was over 24 h and the “single oral dose showing the IC50 value” was found to be 187 nmol/kg. In assay [3], the “AUC: 1-inhibition 0 hr (% relative to limaprost)” value came out at 204% and the “AUC: 6-inhibition 0 hr (% relative to limaprost)” value is 346%. Besides, in assay [2], the “Relative activity (%)” value came to 550%.

On to `CCCC[C@H](C)C[C@H](O)/C=C/[C@H]1[C@H](O)CC(=O)[C@@H]1CCCC/C=C/C(=O)O` [limaprost, (2E)-7-((1R,2R,3R)-3-hydroxy-2-((1E,3S,5S)-3-hydroxy-5-methylnon-1-en-1-yl)-5-oxocyclopentyl)hept-2-enoic acid, reference compound], for which the “Relative activity (%)” value in assay [1] worked out at 100%. In assay [3], the AUC: 1-inhibition 0 hr is 353 %·h, the AUC: 6-inhibition 0 hr is 147 %·h, the “Inhibition 0 hr” value amounted to 12.1 h and the “single oral dose showing the IC50 value” worked out at 266 nmol/kg. For the same compound, in assay [3], the “AUC: 1-inhibition 0 hr (% relative to limaprost)” value worked out at 100% and the “AUC: 6-inhibition 0 hr (% relative to limaprost)” value is on record as 100%. The “Relative activity (%)” value in assay [2] was 100%.

Consider `C[C@@H](CC#CC1CC1)[C@H](O)/C=C/[C@H]1[C@H](O)CC(=O)[C@@H]1CCCCCCC(=O)O` [compound (1)-9, 7-((1R,2R,3R)-2-((1E,3S,4S)-7-cyclopropyl-3-hydroxy-4-methylhept-1-en-6-yn-1-yl)-3-hydroxy-5-oxocyclopentyl)heptanoic acid], for which the “Relative activity (%)” value in assay [1] is given as 1200%. In addition, in assay [3], the AUC: 1-inhibition 0 hr worked out at 627 %·h, the AUC: 6-inhibition 0 hr was 401 %·h, the “Inhibition 0 hr” value came out at 19.7 h and the “single oral dose showing the IC50 value” is 178 nmol/kg. Also, in assay [3], the “AUC: 1-inhibition 0 hr (% relative to limaprost)” value stood at 178% and the “AUC: 6-inhibition 0 hr (% relative to limaprost)” value amounted to 273%. In assay [2], the “Relative activity (%)” value turned out to be 311%.

In the case of `CCC#CC[C@H](C)[C@H](O)/C=C/[C@H]1[C@H](O)CC(=O)[C@@H]1CCCCCCC(=O)OCC(=O)C(C)(C)C` [compound (1)-5, 3,3-dimethyl-2-oxobutyl 7-((1R,2R,3R)-3-hydroxy-2-((1E,3S,4S)-3-hydroxy-4-methylnon-1-en-6-yn-1-yl)-5-oxocyclopentyl) heptanoate], the “Relative activity (%)” value in assay [1] was 161%.

In the case of `CCC#CC[C@H](C)[C@H](O)/C=C/[C@H]1[C@H](O)CC(=O)[C@@H]1CCCC/C=C/C(=O)O` [compound (1)-7, (2E)-7-((1R,2R,3R)-3-hydroxy-2-((1E,3S,4S)-3-hydroxy-4-methylnon-1-en-6-yn-1-yl)-5-oxocyclopentyl)hept-2-enoic acid], in assay [1], the “Relative activity (%)” value is reported as 1319%. In assay [3], the AUC: 1-inhibition 0 hr is 713 %·h, the AUC: 6-inhibition 0 hr stood at 526 %·h, the “Inhibition 0 hr” value was over 24 h and the “single oral dose showing the IC50 value” was determined as 168 nmol/kg. Moreover, in assay [3], the “AUC: 1-inhibition 0 hr (% relative to limaprost)” value is 202% and the “AUC: 6-inhibition 0 hr (% relative to limaprost)” value is given as 359%. In assay [2], the “Relative activity (%)” value is 375%.

On to `CCC#CC[C@H](C)[C@H](O)/C=C/[C@H]1[C@H](O)CC(=O)[C@@H]1CCCCCCC(=O)O` [compound (1)-6, 7-((1R,2R,3R)-3-hydroxy-2-((1E,3S,4S)-3-hydroxy-4-methylnon-1-en-6-yn-1-yl)-5-oxocyclopentyl)heptanoic acid], for which the “Relative activity (%)” value in assay [1] came out at 923%; in assay [2], 383%.
